# Data published in ChEMBL document CHEMBL1155034, “Constituents of the root wood of Zanthoxylum wutaiense with antitubercular activity” (2008).
# System: Mycobacterium tuberculosis
# Experiment: Antitubercular activity against Mycobacterium tuberculosis H37Rv after 2 weeks
# Format: functional
# Details: 336 h
row,SMILES,MIC [µg/mL]
1,COC(=O)/C=C/c1ccc2c(c1)C[C@@H](C(C)(C)O)O2 [METHYL DEMETHOXYWUTAIENSATE],50
2,COc1c2ccccc2nc2occc12 [DICTAMNINE],30
3,COC(=O)c1cc2c(c(OC)c1)O[C@H](C(C)(C)O)C2,35
4,COc1c2ccoc2nc2c(OC)cccc12 [GAMMA-FAGARINE],30
5,COc1cc(/C=C/C=O)cc2c1O[C@H](C(C)(C)O)C2 [WUTAIENSAL],30
6,COc1cc(/C=C/C=O)cc2ccoc12,35
7,CC[C@@H](CO)NCCN[C@@H](CC)CO [ETHAMBUTOL],6.25
8,COc1cc(CCCO)cc2ccoc12,50
9,CC(C)=CCOc1ccc(C(=O)O)cc1 [VALENCIC ACID],45
